# Patent US7935687B2, “Methods for treating spinal muscular atrophy using tetracycline compounds” (Paratek Pharmaceuticals, Inc., priority 2007, dated 2011)
# How the values were obtained:
# [1] = Brain-penetrating ability, brain:plasma ratio; format: in vivo, Male CD1 mice; settings: iv; for Ratio of Brain to Plasma Levels (at T = 3 hours, %): mouse, in vivo, 5 mg/kg
# Experimental: Male CD1 mice were administered various tetracycline compounds (i.v. at a dose of 5 mg/kg). After 15 minutes, 1 hour and 3 hours post-dose, 3 mice were sacrificed, exsanguinated, and brains harvested and snap frozen. Blood was centrifuged and the plasma removed and frozen.
# SMN2 mRNA = assay: In vitro cell-free splicing assay for inclusion of exon 7; format: biochemical; settings: HeLa cell nuclear extract, 30° C., 3 hours
# How it was run: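 ^32P-labelled SMN2 minigene pre-mRNA (exon 6 to part of exon 8; 10 fmol) spliced 3 h at 30 °C in 30% HeLa nuclear extract with 0.5 mM ATP, 1.56 mM MgCl2, pH 7.4, plus compound or buffer. Exon 7 inclusion quantified by denaturing PAGE and phosphorimaging. Emax is maximal % inclusion and Cmax the lowest concentration (μM) reaching it, reported as binned grades.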
# S. aureus (SA RN450) = assay: Antibacterial MIC, gram positive; format: cell-based; settings: CLSI methodology, 35° C., 18-24 hours
# E. coli (EC D1-209) = assay: Antibacterial MIC, gram negative; format: cell-based; settings: CLSI methodology, 35° C., 18-24 hours
# [2] = tested on: 3813 SMA patient-derived fibroblast cells; assay: In vitro gems assay; format: cell-based, Human; settings: 1 mM, SMA patient line
# Experimental: The following example illustrates how tetracycline compound of the invention increase gems in vitro. A glass cover slide was added into each well of 6 well plates and 1×10^4 cells (3813 SMA patient-derived fibroblast cells or 3814 unaffected family member-derived fibroblast cells) in 2 mL were added. After approximately 6 hours, the medium was changed and the desired compound was added to the appropriate well at indicated concentrations. After 12 hours, the medium was changed and the desired compound was added to the appropriate well again. After 24 hours, one set of slides was fixed and the medium was changed and the desired compound was added to the appropriate well again. After 36 hours, the medium was changed and the desired compound was added to the appropriate well again. Another set of cells were fixed on the slides at 48 hours.
# Immunofluorescence staining of the cells was performed by washing the cells 2 times with PBS (phosphate buffered saline) and fixing the cells on slides in 4% paraformaldehyde for 10 minutes on ice. The cells were washed 3 times for 5 minutes with PBS, then were permeabilized on the cover slip with 0.2% TritonX, 0.5% BSA in PBS and incubated for 5 minutes on ice. […] The cells were again washed 2 times for five minutes with PBS, mounted on slides with Molecular Probes Prolong Antifade kit, dried and analyzed with Axioskop widefield fluourescence microscope.
SMILES,"Kp at 3 h ([1]; male, CD1, mouse, brain and plasma, i.v. 5 mg/kg, 3 hours post-dose, read-out: Ratio of Brain to Plasma Levels (at T = 3 hours, %))",Cmax (lowest compound concentration at which the maximum exon 7 inclusion occurs) (SMN2 mRNA),Emax (maximum percentage exon 7 inclusion observed) (SMN2 mRNA),MIC Gram Positive (SA RN450) (S. aureus (SA RN450)),MIC Gram Negative (EC D1-209) (E. coli (EC D1-209)),"Ratio of Brain to Plasma Levels (at T = 3 hours, %) [1]",increase in the number of gems/100 cells [2],MIC (S. aureus (SA RN450); Staphylococcus aureus),MIC (E. coli (EC D1-209); Escherichia coli)
"CN(C)c1ccc(O)c2c1C[C@H]1C[C@H]3[C@H](N(C)C)C(O)=C(C(N)=O)C(=O)[C@@]3(O)C(O)=C1C2=O [Minocycline, minocycline, reference compound]",1.28,–,–,–,–,–,–,–,–
CN(C)C1C(O)=C(C(N)=O)C(=O)C2(O)C(O)=C3C(=O)c4c(O)ccc(-c5cccc(CCCN6CCCCC6)c5)c4CC3CC12 (centres unmarked) [BN],–,*** (concentrations of less than 10 μM),*** (values greater than 20%),"*** (Good antibacterial activity (e.g., less than about 4 μg/mL))",** (modest antibacterial activity (between about 4 and 8 μg/mL)),41.6%,–,–,–
CCCC(CCC)C(=O)O [valproic acid],–,–,–,–,–,–,1.7 fold,–,–
COCCN(C)CC(=O)c1ccc(O)c2c1CC1CC3C(N(C)C)C(O)=C(C(N)=O)C(=O)C3(O)C(O)=C1C2=O (centres unmarked) [BO],–,–,–,"*** (Good antibacterial activity (e.g., less than about 4 μg/mL))",* (weak antibacterial activity (greater than about 8 μg/mL)),50.7%,–,–,–
COCCNC(=O)c1cccc(-c2ccc(O)c3c2CC2CC4C(N(C)C)C(O)=C(C(N)=O)C(=O)C4(O)C(O)=C2C3=O)c1 (centres unmarked) [L],–,* (concentrations of greater than 40 μM),** (values of 10-20%),"*** (Good antibacterial activity (e.g., less than about 4 μg/mL))",* (weak antibacterial activity (greater than about 8 μg/mL)),–,–,–,–
"CCN(CC)CCNC(=O)c1cccc(-c2ccc(O)c3c2C[C@H]2C[C@H]4[C@H](N(C)C)C(O)=C(C(N)=O)C(=O)[C@@]4(O)C(O)=C2C3=O)c1 [Compound E, (4S,4aS,5aR,12aS)-7-[3-(2-Diethylamino-ethylcarbamoyl)-phenyl]-4-dimethylamino-3,10,12,12a-tetrahydroxy-1,11-dioxo-1,4,4a,5,5a,6,11,12a-octahydro-naphthacene-2-carboxylic Acid Amide]",–,** (concentrations between 40 and 10 μM),*** (values greater than 20%),–,–,–,–,< 4 mg/L,> 8 mg/L
CON=Cc1ccc(-c2ccc(O)c3c2CC2CC4C(N(C)C)C(O)=C(C(N)=O)C(=O)C4(O)C(O)=C2C3=O)o1 (centres unmarked) [AZ],–,*** (concentrations of less than 10 μM),** (values of 10-20%),"*** (Good antibacterial activity (e.g., less than about 4 μg/mL))",* (weak antibacterial activity (greater than about 8 μg/mL)),–,–,–,–
CN(C)C1C(O)=C(C(N)=O)C(=O)C2(O)C(O)=C3C(=O)c4c(O)ccc(C(=O)CNc5cccnc5)c4CC3CC12 (centres unmarked) [CB],–,** (concentrations between 40 and 10 μM),** (values of 10-20%),* (weak antibacterial activity (greater than about 8 μg/mL)),* (weak antibacterial activity (greater than about 8 μg/mL)),–,–,–,–
CN(C)C1C(O)=C(C(N)=O)C(=O)C2(O)C(O)=C3C(=O)c4c(O)ccc(-c5ccc(NC(=O)CNC(C)(C)C)cc5)c4CC3CC12 (centres unmarked) [AF],–,*** (concentrations of less than 10 μM),* (percentage inclusion values of less than 10%),"*** (Good antibacterial activity (e.g., less than about 4 μg/mL))","*** (Good antibacterial activity (e.g., less than about 4 μg/mL))",–,–,–,–
CN(C)C1C(O)=C(C(N)=O)C(=O)C2(O)C(O)=C3C(=O)c4c(O)ccc(-c5cccc(C(=O)NCCN)c5)c4CC3CC12 (centres unmarked) [N],–,** (concentrations between 40 and 10 μM),** (values of 10-20%),"*** (Good antibacterial activity (e.g., less than about 4 μg/mL))",* (weak antibacterial activity (greater than about 8 μg/mL)),–,–,–,–
CN(Cc1cccnc1)Cc1cccc(-c2ccc(O)c3c2CC2CC4C(N(C)C)C(O)=C(C(N)=O)C(=O)C4(O)C(O)=C2C3=O)c1 (centres unmarked) [BJ],–,*** (concentrations of less than 10 μM),** (values of 10-20%),"*** (Good antibacterial activity (e.g., less than about 4 μg/mL))",* (weak antibacterial activity (greater than about 8 μg/mL)),–,–,–,–
CN(C)CCNC(=O)c1cccc(-c2ccc(O)c3c2CC2CC4C(N(C)C)C(O)=C(C(N)=O)C(=O)C4(O)C(O)=C2C3=O)c1 (centres unmarked) [Compound A],–,** (concentrations between 40 and 10 μM),** (values of 10-20%),"*** (Good antibacterial activity (e.g., less than about 4 μg/mL))",* (weak antibacterial activity (greater than about 8 μg/mL)),–,–,–,–
COCCNCc1ccoc1-c1ccc(O)c2c1CC1CC3C(N(C)C)C(O)=C(C(N)=O)C(=O)C3(O)C(O)=C1C2=O (centres unmarked) [BQ],–,*** (concentrations of less than 10 μM),** (values of 10-20%),"*** (Good antibacterial activity (e.g., less than about 4 μg/mL))",* (weak antibacterial activity (greater than about 8 μg/mL)),–,–,–,–
COc1ccc(-c2ccc(O)c3c2CC2CC4C(N(C)C)C(O)=C(C(N)=O)C(=O)C4(O)C(O)=C2C3=O)cc1CNCC(N)=O (centres unmarked) [BE],–,*** (concentrations of less than 10 μM),** (values of 10-20%),"*** (Good antibacterial activity (e.g., less than about 4 μg/mL))",* (weak antibacterial activity (greater than about 8 μg/mL)),–,–,–,–
